According to US5610174A, “Use of α1A -selective adrenoceptor agonists for the treatment of urinary incontinence” (priority 1995, dated 1997):

Experiments:
[1] = target: T1, human urethra (α1-adrenoceptor) (Homo sapiens, UniProt P35348); experiment: Contractile study in isolated human male urethra; settings: versus phenylephrine-induced contraction; read-out: pKB Human Urethra Male (converted)
T1 construct: Tissue samples from the proximal urethra of male humans; from tissue; host or cells: human male proximal urethra strips
T1 sequence (P35348 1-466): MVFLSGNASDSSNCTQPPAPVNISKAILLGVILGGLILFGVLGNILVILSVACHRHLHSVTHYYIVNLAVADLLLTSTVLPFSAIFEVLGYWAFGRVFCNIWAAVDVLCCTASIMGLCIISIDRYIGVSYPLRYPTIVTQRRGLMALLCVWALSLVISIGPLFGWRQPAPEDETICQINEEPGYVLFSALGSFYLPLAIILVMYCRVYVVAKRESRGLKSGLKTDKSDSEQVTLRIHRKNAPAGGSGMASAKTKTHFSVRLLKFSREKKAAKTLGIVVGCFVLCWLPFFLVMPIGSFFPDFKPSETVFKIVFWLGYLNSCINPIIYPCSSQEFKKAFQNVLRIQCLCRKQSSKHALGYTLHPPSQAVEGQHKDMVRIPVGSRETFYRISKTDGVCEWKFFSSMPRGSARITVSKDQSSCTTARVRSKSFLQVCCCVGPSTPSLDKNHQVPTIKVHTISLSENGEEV
Source text: (§1) In addition, similar studies were done using bladder neck tissue from female dogs. In order to identify the specific receptor subtype in each tissue, the pharmacological profile was compared to the profiles for these same drugs at the cloned human α1A, α1B, or α1C subtypes.
(§2) Tissue samples from the proximal urethra of male humans and male and female rabbits, as well as tissue samples from both the proximal urethra and bladder neck of male and female dogs were cut into transverse strips (3×10 mm) and suspended under 0.5 g tension in Krebs' physiological buffer at 37° C. To determine agonist potency (pEC50 )and antagonist affinity constants (pKB), concentration-effect curves to the non-selective agonist phenylepherine were constructed in the absence and in the presence of increasing concentrations of the antagonist. Up to four sequential curves were constructed in each tissue. Antagonists were allowed to equilibrate for 1h before each concentration-effect curve, and the drugs were completely washed out in between successive curves. In each experiment, one tissue served as a "time control", in which no antagonist was added so that changes in tissue sensitivity could be assessed as a function of time. […] In instances in which a single concentration of antagonist was used, pKB values were determined by the equation: […], where CR is defined as the ratio of the agonist EC50 in the presence of the antagonist to that in the absence of the antagonist.

[2] = target: T2, dog BN, male (α1-adrenoceptor) (Canis lupus, UniProt A0A8I3NK63); experiment: Contractile study in isolated male dog bladder neck; settings: versus phenylephrine-induced contraction
T2 sequence (A0A8I3NK63 1-466): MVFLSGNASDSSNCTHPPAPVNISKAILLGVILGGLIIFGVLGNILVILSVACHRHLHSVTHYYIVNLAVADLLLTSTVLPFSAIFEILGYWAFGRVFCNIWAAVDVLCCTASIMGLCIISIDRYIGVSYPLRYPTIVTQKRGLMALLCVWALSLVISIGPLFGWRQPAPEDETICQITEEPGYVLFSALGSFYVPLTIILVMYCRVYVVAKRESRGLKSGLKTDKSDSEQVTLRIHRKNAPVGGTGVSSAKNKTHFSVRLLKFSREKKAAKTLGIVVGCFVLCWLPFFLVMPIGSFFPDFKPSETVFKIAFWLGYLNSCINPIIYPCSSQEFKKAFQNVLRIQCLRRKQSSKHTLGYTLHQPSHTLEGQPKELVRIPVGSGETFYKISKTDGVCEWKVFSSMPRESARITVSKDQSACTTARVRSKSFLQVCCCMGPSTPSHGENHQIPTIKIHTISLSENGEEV
Source text: as §1, §2

[3] = target: T3, human histamine H2 receptor (Homo sapiens, UniProt P25021); experiment: Radioligand binding at cloned human histamine H2; settings: [3H]tiotidine
T3 construct: expressed in transfected cells; host or cells: COS-7 (plasmid pcEXV-H2, ATCC 75345)
Procedure: Human Histamine H2 Receptor
The coding sequence of the human H2 receptor was obtained from a human placenta genomic library, and cloned into the cloning site of PCEXV-3 eukaryotic expression vector. The plasmid DNA for the H2 receptor is designated pcEXV-H2, and was deposited on Nov. 6, 1992 under ATCC Accession No. 75345. This construct was transfected into COS-7 cells by the DEAE-dextran method. Cells were harvested after 72 hours and lysed by sonication in 5 mM Tris-HCl, 5 mM EDTA, pH 7.5. The cell lysates were centrifuged at 1000 rpm for 5 min at 4° C., and the supernatant was centrifuged at 30,000×g for 20 min at 4° C. The pellet was suspended in 37.8 mM NaHPO4, 12.2 mM K2PO4, pH 7.5. The binding of the histamine H2 antagonist [3H] tiotidine (5 nM, specific activity: about 70 Ci/mM) was done in a final volume of 0.25 ml and incubated at room temperature for 60 min. Nonspecific binding was determined in the presence of 10 μM histamine. The bound radioligand was separated by filtration through GF/B filters using a cell harvester.

T3 sequence (P25021 whole entry): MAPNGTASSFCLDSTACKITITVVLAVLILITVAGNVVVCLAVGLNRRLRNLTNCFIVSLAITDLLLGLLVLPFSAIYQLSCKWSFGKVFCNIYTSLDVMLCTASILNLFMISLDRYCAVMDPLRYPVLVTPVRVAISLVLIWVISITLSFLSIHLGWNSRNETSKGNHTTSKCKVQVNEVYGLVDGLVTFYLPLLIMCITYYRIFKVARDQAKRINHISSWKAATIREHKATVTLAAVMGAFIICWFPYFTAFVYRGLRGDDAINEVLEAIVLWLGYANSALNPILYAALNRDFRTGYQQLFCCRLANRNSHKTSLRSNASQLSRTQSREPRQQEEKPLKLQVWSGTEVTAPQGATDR

SMILES | Kb [1] [nM] | pKB Dog BN Male [2] | Ki ([3]; read-out: pKi H2 (converted)) [nM] | pKi H2 [3]
COc1cc2c(cc1OC)CN(c1cc(N)c3cc(OC)c(OC)cc3n1)CC2 [Abanoquil, 2-(6,7-Dimethoxy-3,4-dihydro-1H-isoquinolin-2-yl)-6,7-dimethoxyquinolin-4-ylamine hemifumarate hydrate] | 0.251 | 8.6 |  | 
COc1ccc(SC)c2c1C[C@@H]1[C@@H](C2)OCCN1C (relative stereo) [SDZ NVI-085, (±)-trans-4-Methyl-6-methoxy-9-thiomethoxy-3,4,4a, 5,10,10a-hexahydro-2H-naphtho[2,3-b][1,4]oxazine] |  |  | 6310 | 
CNCCc1ccc(O)c(NS(C)(=O)=O)c1 [SK&F 102652] |  |  |  | 4.6
COc1ccccc1N1CCN(CCCNc2c(C)c(=O)n(C)c(=O)n2C)CC1 [Compound 5-MU] | 1.58 | 8.7 |  | 
